≈ marks a conversion by molar mass, not a printed value.
Tests used:
Experiment in all cases: MIC, agar incorporation method
E. faecium 398(VRE) = assay type: cell-based, Enterococcus faecium; settings: Enterococcus faecium; S. No. 22, E. faecium 398(VRE); read-out: MIC
S. aureus ATCC 25923 = assay type: cell-based, Staphylococcus aureus; settings: Staphylococcus aureus, ATCC25923; S. No. 1, organism cell empty; read-out: MIC
S. pneumoniae AB 34 = assay type: cell-based, Streptococcus pneumoniae; settings: Streptococcus pneumoniae, AB34; S. No. 49, S. pneumoniae AB 34; read-out: MIC
S. aureus SG 511 = assay type: cell-based, Staphylococcus aureus; settings: Staphylococcus aureus, SG511; S. No. 3, S. aureus SG 511; read-out: MIC
S. pneumoniae AB4 = assay type: cell-based, Streptococcus pneumoniae; settings: Streptococcus pneumoniae; S. No. 33, S. pneumoniae AB4; read-out: MIC
Moraxella M1 = assay type: cell-based; settings: S. No. 58, Moraxella M1; read-out: MIC
S. pneumoniae ATCC 6303 = assay type: cell-based, Streptococcus pneumoniae; settings: Streptococcus pneumoniae, ATCC6303; S. No. 50, S. pneumoniae ATCC 6303; read-out: MIC
Acinetobacter 9956 = assay type: cell-based; settings: S. No. 30, Acinetobacter 9956; read-out: MIC
E. coli 25922 = assay type: cell-based; settings: Escherichia coli; S. No. 25, E. coli 25922; read-out: MIC
[1] = test system: S. aureus (MRSA 33) Cipro R; assay type: cell-based, Staphylococcus aureus; settings: Staphylococcus aureus; S. No. 7, S. aureus (MRSA 33) Cipro R; read-out: MIC
S. pneumoniae 217 = assay type: cell-based, Streptococcus pneumoniae; settings: Streptococcus pneumoniae; S. No. 38, S. pneumoniae 217; read-out: MIC
S pneumoniae 1294. = assay type: cell-based, Streptococcus pneumoniae; settings: Streptococcus pneumoniae; S. No. 55, S pneumoniae 1294.; read-out: MIC
S. pneumoniae AB 31 = assay type: cell-based, Streptococcus pneumoniae; settings: Streptococcus pneumoniae, AB31; S. No. 36, S. pneumoniae AB 31; read-out: MIC
S. pyogenes 20361 = assay type: cell-based, Streptococcus pyogenes; settings: Streptococcus pyogenes; S. No. 53, S. pyogenes 20361; read-out: MIC
S. aureus (Smith 49951) = assay type: cell-based, Staphylococcus aureus; settings: Staphylococcus aureus; S. No. 9, S. aureus (Smith 49951); read-out: MIC
(MRSA) 562 = assay type: cell-based, Staphylococcus aureus; settings: Staphylococcus aureus; S. No. 8, (MRSA) 562; read-out: MIC
S. pneumoniae AB 16 = assay type: cell-based, Streptococcus pneumoniae; settings: Streptococcus pneumoniae, AB16; S. No. 39, S. pneumoniae AB 16; read-out: MIC
S. pneumoniae AB 17 = assay type: cell-based, Streptococcus pneumoniae; settings: Streptococcus pneumoniae, AB17; S. No. 40, S. pneumoniae AB 17; read-out: MIC
S. pneumoniae CS 1687 = assay type: cell-based, Streptococcus pneumoniae; settings: Streptococcus pneumoniae, CS1687; S. No. 44, S. pneumoniae CS 1687; read-out: MIC
S. pneumoniae AB 25 = assay type: cell-based, Streptococcus pneumoniae; settings: Streptococcus pneumoniae, AB25; S. No. 45, S. pneumoniae AB 25; read-out: MIC
S. pneumoniae AB 29 = assay type: cell-based, Streptococcus pneumoniae; settings: Streptococcus pneumoniae, AB29; S. No. 46, S. pneumoniae AB 29; read-out: MIC
[2] = test system: Serratia marcescens 12999; assay type: cell-based; settings: S. No. 29, Serratia marcescens 12999; read-out: MIC
S. pneumoniae AB 21 = assay type: cell-based, Streptococcus pneumoniae; settings: Streptococcus pneumoniae, AB21; S. No. 41, S. pneumoniae AB 21; read-out: MIC
E. faecalis 29212 = assay type: cell-based; settings: Enterococcus faecalis; S. No. 17, E. faecalis 29212; read-out: MIC
S. aureus ATCC29213 = assay type: cell-based, Staphylococcus aureus; settings: Staphylococcus aureus; S. No. 2, S. aureus ATCC29213; read-out: MIC
S. aureus (MRSA) 21299 = assay type: cell-based, Staphylococcus aureus; settings: Staphylococcus aureus; S. No. 5, S. aureus (MRSA) 21299; read-out: MIC
P. aeruginosa ATCC 27853 = assay type: cell-based; settings: Pseudomonas aeruginosa, ATCC27853; S. No. 28, P. aeruginosa ATCC 27853; read-out: MIC
S. pneumoniae AB 10 = assay type: cell-based, Streptococcus pneumoniae; settings: Streptococcus pneumoniae, AB10; S. No. 35, S. pneumoniae AB 10; read-out: MIC
S. pneumoniae 1275 = assay type: cell-based, Streptococcus pneumoniae; settings: Streptococcus pneumoniae; S. No. 57, S. pneumoniae 1275; read-out: MIC
[3] = test system: S. epidermidis (MRSE)32965; assay type: cell-based, Staphylococcus epidermidis; settings: Staphylococcus epidermidis; S. No. 13, S. epidermidis (MRSE)32965; read-out: MIC
S. pyogenes 19615 = assay type: cell-based, Streptococcus pyogenes; settings: Streptococcus pyogenes; S. No. 51, S. pyogenes 19615; read-out: MIC
S. pneumoniae CS1221 = assay type: cell-based, Streptococcus pneumoniae; settings: Streptococcus pneumoniae; S. No. 34, S. pneumoniae CS1221; read-out: MIC
Moraxella cata. M2 = assay type: cell-based; settings: S. No. 59, Moraxella cata. M2; read-out: MIC
S. pneumoniae AB 14 = assay type: cell-based, Streptococcus pneumoniae; settings: Streptococcus pneumoniae, AB14; S. No. 37, S. pneumoniae AB 14; read-out: MIC
S. haemo ATCC 29970 = assay type: cell-based; settings: S. No. 15, S. haemo ATCC 29970; read-out: MIC
E. durans 581 = assay type: cell-based; settings: Enterococcus durans; S. No. 24, E. durans 581; read-out: MIC

SMILES	MIC (E. faecium 398(VRE))	MIC (S. aureus ATCC 25923)	MIC (S. pneumoniae AB 34)	MIC (S. aureus SG 511)	MIC (S. pneumoniae AB4)	MIC (Moraxella M1)	MIC (S. pneumoniae ATCC 6303)	MIC (Acinetobacter 9956)	MIC (E. coli 25922)	MIC [1]	MIC (S. pneumoniae 217)	MIC (S pneumoniae 1294.)	MIC (S. pneumoniae AB 31)	MIC (S. pyogenes 20361)	MIC (S. aureus (Smith 49951))	MIC ((MRSA) 562)	MIC (S. pneumoniae AB 16)	MIC (S. pneumoniae AB 17)	MIC (S. pneumoniae CS 1687)	MIC (S. pneumoniae AB 25)	further results
CC(=O)NC[C@H]1CN(c2ccc(N3CCN(c4ccc(C=O)o4)CC3)c(F)c2)C(=O)O1 [Compound No. 3, (S)—N-[[3-[3-Fluoro-4-[4-(5-formyl-2-furyl)-1-piperazinyl]phenyl]-2-oxo-5-oxazolidinyl]methyl]acetamide]	0.5 µg/mL (≈ 1.16 µM)	1 µg/mL (≈ 2.32 µM)	0.25 µg/mL (≈ 0.581 µM)	1 µg/mL (≈ 2.32 µM)	0.25 µg/mL (≈ 0.581 µM)	2 µg/mL (≈ 4.65 µM)	0.25 µg/mL (≈ 0.581 µM)	> 16 µg/mL	> 16 µg/mL	0.5 µg/mL (≈ 1.16 µM)	0.25 µg/mL (≈ 0.581 µM)	0.25 µg/mL (≈ 0.581 µM)	0.25 µg/mL (≈ 0.581 µM)	0.25 µg/mL (≈ 0.581 µM)	0.5 µg/mL (≈ 1.16 µM)	0.5 µg/mL (≈ 1.16 µM)	0.25 µg/mL (≈ 0.581 µM)	< 0.125 µg/mL	0.25 µg/mL (≈ 0.581 µM)	0.25 µg/mL (≈ 0.581 µM)	MIC (S. pneumoniae AB 29): 0.25 µg/mL (≈ 0.581 µM); MIC [2]: > 16 µg/mL; MIC (S. pneumoniae AB 21): 0.25 µg/mL (≈ 0.581 µM); MIC (E. faecalis 29212): 0.5 µg/mL (≈ 1.16 µM); MIC (S. aureus ATCC29213): 1 µg/mL (≈ 2.32 µM); MIC (S. aureus (MRSA) 21299): 0.5 µg/mL (≈ 1.16 µM); MIC (P. aeruginosa ATCC 27853): > 16 µg/mL; MIC (S. pneumoniae AB 10): < 0.125 µg/mL; MIC (S. pneumoniae 1275): < 0.125 µg/mL; MIC [3]: 0.5 µg/mL (≈ 1.16 µM); MIC (S. pyogenes 19615): 0.25 µg/mL (≈ 0.581 µM); MIC (S. pneumoniae CS1221): 0.25 µg/mL (≈ 0.581 µM); MIC (Moraxella cata. M2): 1 µg/mL (≈ 2.32 µM); MIC (S. pneumoniae AB 14): < 0.125 µg/mL; MIC (S. haemo ATCC 29970): 0.25 µg/mL (≈ 0.581 µM); MIC (E. durans 581): 0.5 µg/mL (≈ 1.16 µM)
CC(=O)NC[C@H]1CN(c2ccc(N3CCN(c4ccc([N+](=O)[O-])o4)CC3)c(F)c2)C(=O)O1 [Compound No. 4, (S)—N-[[3-[3-Fluoro-4-[4-(5-nitro-2-furyl)-1-piperazinyl]phenyl]-2-oxo-5-oxazolidinyl]methyl]acetamide]	4 µg/mL (≈ 8.94 µM)	16 µg/mL (≈ 35.8 µM)	4 µg/mL (≈ 8.94 µM)	16 µg/mL (≈ 35.8 µM)	8 µg/mL (≈ 17.9 µM)	> 16 µg/mL	4 µg/mL (≈ 8.94 µM)	> 16 µg/mL	> 16 µg/mL	8 µg/mL (≈ 17.9 µM)	4 µg/mL (≈ 8.94 µM)	8 µg/mL (≈ 17.9 µM)	8 µg/mL (≈ 17.9 µM)	4 µg/mL (≈ 8.94 µM)	16 µg/mL (≈ 35.8 µM)	16 µg/mL (≈ 35.8 µM)	8 µg/mL (≈ 17.9 µM)	4 µg/mL (≈ 8.94 µM)	4 µg/mL (≈ 8.94 µM)	4 µg/mL (≈ 8.94 µM)	MIC (S. pneumoniae AB 29): 4 µg/mL (≈ 8.94 µM); MIC [2]: > 16 µg/mL; MIC (S. pneumoniae AB 21): 8 µg/mL (≈ 17.9 µM); MIC (E. faecalis 29212): 8 µg/mL (≈ 17.9 µM); MIC (S. aureus ATCC29213): 16 µg/mL (≈ 35.8 µM); MIC (S. aureus (MRSA) 21299): 8 µg/mL (≈ 17.9 µM); MIC (P. aeruginosa ATCC 27853): > 16 µg/mL; MIC (S. pneumoniae AB 10): 4 µg/mL (≈ 8.94 µM); MIC (S. pneumoniae 1275): 2 µg/mL (≈ 4.47 µM); MIC [3]: 4 µg/mL (≈ 8.94 µM); MIC (S. pyogenes 19615): 4 µg/mL (≈ 8.94 µM); MIC (S. pneumoniae CS1221): 8 µg/mL (≈ 17.9 µM); MIC (Moraxella cata. M2): > 16 µg/mL; MIC (S. pneumoniae AB 14): 2 µg/mL (≈ 4.47 µM); MIC (S. haemo ATCC 29970): 4 µg/mL (≈ 8.94 µM); MIC (E. durans 581): 4 µg/mL (≈ 8.94 µM)

Source: patent publication US20060293307A1, “Oxazolidinone derivatives as antimicrobials” (priority 2002, published 2006)
